Source: publication PMC10060569 (Frontiers in Pharmacology, 2023)
“And” between values parts separate entries of the source, which are not always exact repeats. Identical values can stand only once.

Key:
S15V-hP2X3R = molecular target: T1, S15V-hP2X3R (Homo sapiens, UniProt P56373, S15V); assay: TEVC of ATP-induced currents, S15V-hP2X3R expressed in X. laevis oocytes (peak current protocol); format: cell-based; conditions: for IC50 / inhibition at 1000 µM: 1 µM ATP; for IC50: 30-s preincubation of antagonist, X. laevis oocytes, −60 mV, geometric mean; for inhibition at 1000 µM: 1 mM antagonist, mean ± SEM, read-out: Max. inhibition at 1 mM; for reversibility of the inhibitory effect by washout: subsequent control current after washout
T1 construct: expressed in transfected cells; host or cells: Xenopus laevis oocytes (cRNA injection)
T1 sequence (P56373 1-397 S15V): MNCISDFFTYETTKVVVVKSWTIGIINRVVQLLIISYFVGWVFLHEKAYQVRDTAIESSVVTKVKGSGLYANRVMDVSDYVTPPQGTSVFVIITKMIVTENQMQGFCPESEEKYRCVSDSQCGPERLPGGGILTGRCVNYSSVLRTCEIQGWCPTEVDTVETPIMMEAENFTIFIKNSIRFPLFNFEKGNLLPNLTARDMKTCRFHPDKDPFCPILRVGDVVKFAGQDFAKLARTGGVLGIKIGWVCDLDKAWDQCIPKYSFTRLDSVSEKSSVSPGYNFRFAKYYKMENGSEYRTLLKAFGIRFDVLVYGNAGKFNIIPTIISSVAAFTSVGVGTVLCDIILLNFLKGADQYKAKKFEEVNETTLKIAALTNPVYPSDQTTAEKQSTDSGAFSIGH
Description: Oocyte expression plasmids encoding the wild-type (wt) and N-terminally His-tagged (His-) fusion constructs of the hP2X2R, hP2X3R, hP2X4R, and hP2X7R, and the mutant His-^20RMVL^23KVIV^23S^26N-hP2X1R, S^15V-rP2X3R, and His-S^15V-hP2X3R were the same as used in previous research ([Hausmann et al., 2006]; [Wolf et al., 2011]; [Hausmann et al., 2014]; [Obrecht et al., 2019]). In most cases, the N-terminal His-tagged variants of P2XRs were used here and in the previous studies to allow biochemical analyses on affinity-purified proteins using the same constructs. Although this was not required for the present study, it allows for better comparability with our previous studies. Capped cRNAs of different P2XRs were already available in the research group or were synthesized as previously described ([Schmalzing et al., 1991]; [Stolz et al., 2015]). cRNA was injected into collagenase-defolliculated X. laevis oocytes in aliquots of 41 nl or 23 nl (see Supplementary Table S1 for the amount of cRNA used for expression of the indicated P2XR) using a Nanoliter 2000 injector (World Precision Instruments, Sarasota, United States of America) as described previously ([Hausmann et al., 2014]; [Stolz et al., 2015]; [Obrecht et al., 2019]). To express the heteromeric hP2X2/3 receptor, cRNAs encoding His-hP2X2R and wt-hP2X3R were coinjected at a ratio (w/w) of 1:6. Oocytes were stored at 19°C in an oocyte ringer solution (ORi^+) containing 90 mM NaCl, 1 mM KCl, 1 mM CaCl2, 1 mM MgCl2, and 10 mM HEPES (Carl Roth, Karlsruhe, Germany) adjusted to pH 7.4 with NaOH and supplemented with 50 μg/ml gentamicin (AppliChem, Darmstadt, Germany). The procedures followed for the maintenance of and the surgical treatment for X. laevis adults were approved by the governmental animal care and use committee of the State Agency for Nature, Environment, and Consumer Protection (LANUV, Recklinghausen, Germany; reference no. 81-02.04.2019. A355), in compliance with Directive 2010/63/EU of the European Parliament and of the Council on the protection of animals used for scientific purpose.
Ion currents mediated by P2X receptors were evoked by the indicated concentration of ATP or α,β-meATP and were recorded 1 or 2 days after cRNA injection at ambient temperature at a holding potential of −60 mV by two-electrode voltage clamp (TEVC) as previously described ([Hausmann et al., 2006]). Calcium-free ORi^− solution (90 mM NaCl, 1 mM KCl, 2 mM MgCl2, 10 mM HEPES, pH 7.4) was used to avoid bias due to calcium-activated chloride channels (CaCC) endogenously expressed in X. laevis oocytes ([Miledi, 1982]; [Methfessel et al., 1986]). For recordings of wt-hP2X7R, the composition of the ORi^− solution was modified according to protocols described previously and contained 100 mM NaCl, 2.5 mM KCl, 1 mM MgCl2, 5 mM HEPES, pH 7.4 ([Klapperstück et al., 2000]). The oocytes were continuously superfused with ORi^− by gravity flow (5–10 ml/min). The agonists ATP or α,β-meATP and the investigated NSAIDs were diluted in ORi^− on the day of the recording. […] A peak current protocol (Supplementary Figure S1) was used to analyze fast- and intermediate desensitizing P2XR subtypes (P2X1R, P2X3R, and S^15V-P2X3R), and a steady-state protocol (Supplementary Figure S2) was used for slowly or partially desensitizing P2X subtypes (P2X2R, P2X2/3R, and P2X4R). For recordings of P2X7R, a modified steady-state protocol was used ([Hausmann et al., 2006]). The application of different bath solutions was controlled by computer-operated magnetic valves controlled by the CellWorks E 5.5.1 software (npi electronic, Tamm, Germany).
Antagonist concentration–response data and IC50 values were calculated by normalizing ATP-induced responses to the control responses (recorded in the presence and absence of the antagonist, respectively). […]

[1] = cited from earlier work

SMILES: O=C(O)Cc1ccccc1Nc1c(Cl)cccc1Cl [Diclofenac, diclofenac]
- IC50 (S15V-hP2X3R): 138 µM
- inhibition at 1000 µM (S15V-hP2X3R): ~80%
- reduction of current amplitude in the presence of 3–10 µM diclofenac (S15V-hP2X3R; 3–10 µM diclofenac): 20%–30%
- inhibition at 3 µM (S15V-hP2X3R; read-out: % inhibition of 10 µM ATP-induced currents by 3 µM diclofenac, 3 µM diclofenac, 10 µM ATP, ± SEM): -1.6%
- inhibition at 30 µM (S15V-hP2X3R; read-out: % inhibition of 10 µM ATP-induced currents by 30 µM diclofenac, 30 µM diclofenac, 10 µM ATP, ± SEM): 24%
- reversibility of the inhibitory effect by washout (S15V-hP2X3R): not reversible
- plasma levels, intramuscular injection ([1]; injected intramuscularly, ref Drago et al., 2017): approximately 1.8 μg/ml and ~6 μM
- maximum plasma levels, oral ([1]; oral application of 50–75 mg diclofenac, ref Kurowski et al., 1994, Kienzler et al., 2010): 2.3–2.6 μg/ml and 7–8 μM
- plasma levels, transdermal application ([1]; transdermal application, ref Efe et al., 2014): low nanomolar

SMILES: O=C(O)c1ccccc1Nc1cccc(C(F)(F)F)c1 [Flufenamic acid, flufenamic acid]
- IC50 (S15V-hP2X3R): 221 µM and 222 µM
- inhibition at 1000 µM (S15V-hP2X3R): 69.8%
- reversibility of the inhibitory effect by washout (S15V-hP2X3R): not reversible
- plasma levels, transdermal, repetitive application ([1]; applied transdermally, even with repetitive application, ref Drago et al., 2017): ≤ 180 nM
